Data on 15 compounds can be found in patent US7998937B2, “Flavonoid compound having an antiviral activity” (Korea Research Institute of Bioscience and Biotechnology, priority 2005, dated 2011).

Values after ≈ are worked out from the molar mass of the structure shown. Read-outs that look alike come from different tables or passages of the source.

The subject of data set [1] is rhinovirus (strain: rhinovirus 2). Briefly: Inhibitory activity against rhinovirus in HeLa cells (SRB). Format: cell-based. Conditions: for inhibition at 10 µg/mL: Enterovirus, HeLa, 48 h, read-out: Inhibitory activity (%) (Mean ± S.D.). The method, then:
In order to evaluate the inhibitory activity of quercetin-7-rhamnoside against rhino virus, the following in vitro test was performed using HeLa, one of human cervical cancer cell lines, cells. Inhibitory activity of quercetin-7-rhamnoside against viral proliferation was measured by the method proposed by Kwon Dur-Han, et al. (Korean Patent Publication No. 2004-101863). […] HeLa cells were cultured on a 96-well microplate until the bottom of each well was completely covered with cells. Remaining culture medium was removed and each well was washed twice with a phosphate buffer. A rhino virus solution adjusted to a concentration of TCID 50 was added to each well. […] After 48 hours, the HeLa cells were observed under a microscope. After adding 100 μL of 70% acetone, each well was kept at −20° C. for 1 hour. After drying in a desiccator, 100 μL of 0.4% (w/v) SRB (sulforhodamine B) solution dissolved in 1% (v/v) acetic acid was added. After 30 minutes of staining, the SRB solution not bound to the cells was washed off with 1% (v/v) acetic acid for 4 times. After drying, 100 μL of 10 mM Tris solution (pH 10.5) was added to each well to dissolve the stained substance at the bottom of the well. Light absorbance was measured at 562 nm to evaluate the antiviral activity. As control group, viability of cells treated with DMSO only was compared with those treated with both DMSO and virus. Each test was repeated for 3 times.

In data set [2] the test system is porcine epidemic diarrhea virus (PEDV). Briefly: Antiviral activity against PEDV in Vero cells (SRB staining). The following applies: for IC50: Porcine epidemic diarrhea virus, Vero, 48 h, read-out: IC50 (concentration required for 50% inhibition of viruses); for Inhibitory activity (TI = CC50/IC50) / IC50 (concentration required for 50% inhibition of viruses): PEDV in Vero cells, 48 hours; for Inhibitory activity (TI = CC50/IC50): 0.1-100 μg/mL; for IC50 (concentration required for 50% inhibition of viruses): maximum dosage 100 μg/mL. A general note: The SRB assay estimates cell density from bound dye.

Data set [3] can be described thus: in vitro. Conditions: African green monkey.
The test system of data set [4] is influenza type A (H1N1/WS/33) virus. Briefly: Antiviral activity against influenza type A virus in MDCK cells (SRB). Format: cell-based, influenza virus type A (H1N1; WS/33 strain). The following applies: Influenza A virus; 10 μg/mL, influenza A H1N1/WS/33 in MDCK cells, 48 hours, repeated 3 times; read-out: Inhibitory activity (%) (Mean ± S.D.). The method, then: In order to evaluate the inhibitory activity of quercetin-7-rhamnoside against influenza virus, the following in vitro test was performed using MDCK cells derived from dog kidney.
Inhibitory activity of quercetin-7-rhamnoside against viral proliferation was measured by the method proposed by Kwon Dur-Han, et al. (Korean Patent Application No. 2004-101863). Inhibitory activity against influenza virus type A (H1N1; WS/33 strain) was measured. MDCK cells were cultured on a 96-well microplate until the bottom of each well was completely covered with cells. Remaining culture medium was completely removed and each well was washed twice with a phosphate buffer. Each of quercetin-7-rhamnoside; conventional antiviral agents purchased from Sigma-ribavirin and amantadine; oseltamivir (trade name: Tamiflu) purchased from Roche; and zanamivir (trade name: Relenza) purchased from Glaxo Wellcome; dissolved in dimethyl sulfoxide was added to each well to a final concentration of 10 μg/mL. […] After adding 100 μL of 70% acetone, each well was kept at −20° C. for 1 hour. After drying in a desiccator, 100 μL of 0.4% (w/v) SRB (sulforhodamine B) solution dissolved in 1% (v/v) acetic acid was added. After 30 minutes' staining, the SRB staining solution not bound to the cells was washed off with 1% (v/v) acetic acid for 4 times. After drying, 100 μL of 10 mM Tris solution (pH 10.5) was added to each well to dissolve the stained substance at the bottom of the well. Light absorbance was measured at 562 nm to evaluate the antiviral activity. As control group, viability of cells treated with DMSO only was compared with those treated with both DMSO and virus. Each test was repeated 3 times.

For data set [5], the system named is influenza type B (B/Lee/40) virus. The experiment in a line: Inhibitory activity against influenza type B virus in MDCK cells (SRB). Type of data set: cell-based. The following applies: Influenza B virus, read-out: Inhibitory activity (%) (Mean ± S.D.).
For another data set, the system named is rotavirus (strain: OSU). The experiment in a line: Inhibitory activity against rotavirus in MA104 cells (SRB). Type of data set: cell-based. Conditions: read-out: Inhibitory activity (%) (Mean ± S.D.). The procedure: In order to evaluate the inhibitory activity of quercetin-7-rhamnoside against rota virus, the following in vitro test was performed using MA014 cells derived from […] kidney. Inhibitory activity of quercetin-7-rhamnoside against viral proliferation was measured by the method proposed by Kwon Dur-Han, et al. (Korean Patent Publication No. 2004-101863). Inhibitory activity against rotavirus (strain: OSU) was measured. MA104 cells were cultured on a 96-well microplate until the bottom of each well was completely covered with cells. Remaining culture medium was removed and each well was washed twice with a phosphate buffer. A rota virus solution adjusted to a concentration of TCID 50 was added to each well. […] After 48 hours, the MA104 cells were observed under a microscope. After adding 100 μL of 70% acetone, each well was kept at −20° C. for 1 hour. After drying in a desiccator, 100 μL of 0.4% (w/v) SRB (sulforhodamine B) solution dissolved in 1% (v/v) acetic acid was added. After 30 minutes of staining, the SRB solution not bound to the cells was washed off with 1% (v/v) acetic acid for 4 times. After drying, 100 μL of 10 mM Tris solution (pH 10.5) was added to each well to dissolve the stained substance at the bottom of the well. Light absorbance was measured at 562 nm to evaluate the antiviral activity. As control group, viability of cells treated with DMSO only was compared with those treated with both DMSO and virus. Each test was repeated for 2 times.

For data set [6], the system named is porcine transmissible gastroenteritis virus (TGEV). The experiment in a line: Anti-coronavirus inhibitory activity against TGEV in ST cells. Type of data set: cell-based. The following applies: for inhibitory activity against TGEV (in words): 0.1-100 μg/mL, 48 hours. The method, then: (§1) Antiviral activity of quercetin-7-rhamnoside against porcine transmissible gastroenteritis virus (TGEV) and porcine respiratory coronavirus (PRCV), another kind of coronaviruses, was evaluated. ST cells were cultured on a 96-well microplate until the bottom of each well was completely covered with cells. Remaining culture medium was completely removed and each well was washed twice with a phosphate buffer. TGEV or PRCV solution adjusted to a concentration of TCID50 was added to each well. Each of quercetin-7-rhamnoside, conventional antiviral agents purchased from Sigma-ribavirin, lamivudine, azidovudine, acycloguanine and glycyrrhizhin-dissolved in dimethyl sulfoxide was added to each well to a final concentration of 0.1-100 μg/mL. […] Similarly to the aforesaid evaluation of antiviral inhibitory activity against PEDV, c ells treated with DMSO only and those treated with both DMSO and TGEV or both DMSO and PRCV were used as control groups.

Data set [7] concerns porcine respiratory coronavirus (PRCV). Briefly: Anti-coronavirus inhibitory activity against PRCV in ST cells. The following applies: for inhibitory activity against PRCV (in words): 0.1-100 μg/mL, 48 hours. Format: cell-based. The method, then: as §1
The nature of data set [8]: in vitro. The following applies: pig.
Setting [9] is: 10 μg/mL, rhinovirus 2 in HeLa cells, 48 hours, repeated 3 times.
The mark [10] stands for this setting: 10 μg/mL, rotavirus OSU in MA104 cells, 48 hours, repeated 2 times.
Where [11] appears, read: 10 μg/mL, influenza B/Lee/40 in MDCK cells, 48 hours, repeated 3 times.
The mark [12] stands for this setting: Alphacoronavirus 1, 48 hours, read-out: IC50.

For `O=c1cc(-c2ccc(O)c(O)c2)oc2cc(O)cc(O)c12` [Luteolin, luteolin], the inhibition at 10 µg/mL in [1] (setting [9]) was determined as 21.8%. Further, the IC50 in [2] is 0.21 µg/mL (≈ 0.734 µM).

Regarding catechin, in data set [1] (setting [9]), the “Inhibitory activity (%) (Mean ± S.D.)” value is 11.21%. In data set [2], the “Inhibitory activity (TI = CC50/IC50)” value is listed as above 9.0 and the “IC50 (concentration required for 50% inhibition of viruses)” value is 11.1 µg/mL. In [2] (listed as catechin), the “Inhibitory activity (TI = CC50/IC50)” value was 9.0.

With `COc1ccc([C@@H]2CC(=O)c3c(O)cc(O[C@@H]4O[C@H](CO[C@@H]5O[C@@H](C)[C@H](O)[C@@H](O)[C@H]5O)[C@@H](O)[C@H](O)[C@H]4O)cc3O2)cc1O` [Hesperidin, hesperidin], the “Inhibitory activity (%) (Mean ± S.D.)” value in data set [1] (setting [9]) was 3.12%. Further, the “IC50 (concentration required for 50% inhibition of viruses)” value in data set [2] is given as “IC50 not attained even at the maximum dosage”.

For the compound `C[C@@H]1O[C@@H](OC[C@H]2O[C@@H](Oc3c(-c4ccc(O)c(O)c4)oc4cc(O)cc(O)c4c3=O)[C@H](O)[C@@H](O)[C@@H]2O)[C@H](O)[C@H](O)[C@H]1O` [Rutin, rutin], in [1] (setting [9]), the inhibition at 10 µg/mL was 25.7%. Further, the IC50 in data set [2] is above 100 µg/mL.

In the case of `O=c1cc(-c2ccc(O)cc2)oc2cc(O)cc(O)c12` [Apigenin, apigenin], the CC50 at 48 h in the data set “in vitro [3]” was 50 µg/mL (≈ 185 µM). For the same compound, in [1] (setting [9]), the inhibition at 10 µg/mL was 9.24%. The IC50 in data set [2] came to 0.1 µg/mL (≈ 0.37 µM).

Consider `NC12CC3CC(CC(C3)C1)C2` [Amantadine, amantadine], for which the inhibition at 10 µg/mL in data set [4] was 14.6%; in data set [5] (MDCK, 48 h) it was -1.85%.

Turning to `CC(=O)N[C@H]1[C@H]([C@H](O)[C@H](O)CO)OC(C(=O)O)=C[C@@H]1N=C(N)N` [Relenza, zanamivir], the inhibition at 10 µg/mL came out at 0.5% in the data set on rotavirus (strain: OSU) (setting [10]), 52.7% in data set [4] and 3.4% in [5] (setting [11]). Besides, the “IC50 (concentration required for 50% inhibition of viruses)” value in data set [2] is on record as “IC50 not attained even at the maximum dosage”.

For `C[C@@H]1O[C@@H](Oc2c(-c3ccc(O)c(O)c3)oc3cc(O)cc(O)c3c2=O)[C@H](O)[C@H](O)[C@H]1O` [Quercitrin, quercitrin], the inhibition at 10 µg/mL in data set [1] turned out to be 13.4%. The IC50 in [2] was above 100 µg/mL.

Compound `O=c1c(O)c(-c2ccc(O)c(O)c2)oc2cc(O)cc(O)c12` [Quercetin, quercetin] came in with a CC50 at 48 h in “in vitro [3]” of 365 µg/mL (≈ 1210 µM). Also, in data set [1] (setting [9]), the inhibition at 10 µg/mL amounted to 9.87%. Moreover, the IC50 in [2] turned out to be 10.7 µg/mL (≈ 35.4 µM).

Turning to `Nc1nc2c(ncn2COCCO)c(=O)[nH]1` [Acycloguanine, acycloguanine], in the data set on rotavirus (strain: OSU) (setting [10]), the inhibition at 10 µg/mL worked out at 0.78%. In data set [6], the “inhibitory activity against TGEV (in words)” value was “no inhibitory activity”. Further, in [7], the “inhibitory activity against PRCV (in words)” value is reported as “no inhibitory activity”. Also, in data set [2], the “IC50 (concentration required for 50% inhibition of viruses)” value was “IC50 not attained even at the maximum dosage” and the IC50 is above 100 µg/mL.

For `CCOC(=O)C1=C[C@@H](OC(CC)CC)[C@H](NC(C)=O)[C@@H](N)C1` [Tamiflu, oseltamivir], the inhibition at 10 µg/mL was -9.78% in data set [4] and -1.43% in data set [5] (MDCK, 48 h). For the same compound, the “IC50 (concentration required for 50% inhibition of viruses)” value in data set [2] is “IC50 not attained even at the maximum dosage”.

For `Nc1ccn([C@@H]2CS[C@H](CO)O2)c(=O)n1` [Lamivudine, lamivudine], the inhibition at 10 µg/mL with rotavirus (strain: OSU) (setting [10]) worked out at 0.02%. In [6], the “inhibitory activity against TGEV (in words)” value was “no inhibitory activity”. Besides, in data set [7], the “inhibitory activity against PRCV (in words)” value is given as “no inhibitory activity”. For the same compound, the IC50 in data set [2] is above 100 µg/mL.

With `O=c1c(-c2ccc(O)cc2)coc2cc(O[C@@H]3O[C@H](CO)[C@@H](O)[C@H](O)[C@H]3O)cc(O)c12` [Genistin, genistin], the inhibition at 10 µg/mL in [1] (setting [9]) is 13%. In data set [2], the “IC50 (concentration required for 50% inhibition of viruses)” value is on record as “IC50 not attained even at the maximum dosage” and the IC50 was above 100 µg/mL.

`CC1(C)[C@@H](O[C@H]2O[C@H](C(=O)O)[C@@H](O)[C@H](O)[C@H]2O[C@@H]2O[C@H](C(=O)O)[C@@H](O)[C@H](O)[C@H]2O)CC[C@]2(C)[C@H]3C(=O)C=C4[C@@H]5C[C@@](C)(C(=O)O)CC[C@]5(C)CC[C@@]4(C)[C@]3(C)CC[C@@H]12` [Glycyrrhizin, glycyrrhizin]: the inhibition at 10 µg/mL in the data set with rotavirus (strain: OSU) (Rotavirus, MA104, 48 h) was found to be 0.49%. Besides, the “inhibitory activity against TGEV (in words)” value in [6] is “no inhibitory activity”. Besides, the “inhibitory activity against PRCV (in words)” value in data set [7] was “no inhibitory activity”.

As to `NC(=O)c1ncn([C@@H]2O[C@H](CO)[C@@H](O)[C@H]2O)n1` [Ribavirin, ribavirin], the inhibition at 10 µg/mL in the data set with rotavirus (strain: OSU) (setting [10]) was 82.3%; in data set [4] it was 74.2%; in data set [1] (setting [9]) it was 42.3%; in data set [5] (setting [11]), 95.8%. Further, the IC50 in data set [6] (setting [12]) was 55.1 µg/mL (≈ 226 µM); in data set [7] (setting [12]), 61.6 µg/mL (≈ 252 µM); in [2] it was 4.1 µg/mL (≈ 16.8 µM). Also, the CC50 at 48 h in the data set “in vitro [3]” and in “in vitro [8]” was above 100 µg/mL each time. Moreover, the “Inhibitory activity (%) (Mean ± S.D.)” value in data set [1] (setting [9]) came to 42.32 ± 4.38%.
